From US11517629B2, “Methods of treating cells containing fusion genes by genomic targeting” (UNIVERSITY OF PITTSBURGH—OF THE COMMONWEALTH SYSTEM OF …, priority 2016, dated 2022)

Experiments:
DU145 BP = test: TUNEL assay of xenografted cancers; format: in vivo, human; details: DU145 BP clone containing TMEM135-CCDC67 breakpoint; FIG. 16B, treated with Ad-TC
Protocol: (§1) FIG. 16A-B. (A) Expression of Cas9^D10A and HSV1-tk in HUH7 or HEP3B tumors treated with Ad-TC or pAD5-Cas9^D10A-gRNAMAN2A1^int13-gRNAFER^int14/pAD-MAN2A1^int13-EGFP-tk-FER^int14 (Ad-MF). Green arrows indicate unstained mouse stromal cells. (B) Genome therapy induced apoptosis of xenografted cancers that contain fusion gene breakpoints. Terminal deoxynucleotidyl transferase (TdT) dUTP Nick-End Labeling (TUNEL) assays were performed on the PC3 BP, DU145 BP, PC3 CMV, DU145 CMV, or HUH7 xenografted cancers treated with either Ad-TC or Ad-MF.
(§2) Immunohistochemistry. Immunohistochemistry was performed as described previously 6 with antibodies specific for HSV-1 TK (1:100 dilution) or for Cas9 (1:100 dilution). The antibody was omitted in negative controls. The sections were then incubated with horseradish peroxidase conjugated anti-rabbit IgG for 30 minutes at room temperature (ABC kit from Vector Labs, Inc). Slides were then exposed to a 3,3′-diaminobenzidine solution to visualize immunostaining. Counterstaining was performed by incubating the slides in 1% Hematoxylin solution for 2 minutes at room temperature. The slides were then rinsed briefly in distilled water to remove excessive staining. The procedure of TUNEL assays is similar to that previously described (13).

PC3 BP = test: TUNEL assay of xenografted cancers; format: in vivo, human; details: PC3 BP clone containing TMEM135-CCDC67 breakpoint; FIG. 16B, treated with Ad-TC
Protocol: as §1, §2

Q: With Nc1nc(O)c2ncn(COC(CO)CO)c2n1 [ganciclovir] as the compound, how does the “cell death observed by tunel staining” value (DU145 BP) read?
A: significant cell death

Q: What about the “cell death observed by tunel staining” value (PC3 BP) of the same compound?
A: significant cell death
